Where “and” joins values, the source holds several entries; their conditions need not be identical. Equal values may be shown once.
What was measured:
[1] = system: cord blood derived mast cells; assay: Biosynthesis of 14,15-LTC4 in IL-4 primed cord blood derived mast cells (EIA); assay type: cell-based, human; conditions: arachidonic acid (10 μM), 5 min, n=3
Description: Mast cells play a key role in the pathophysiology of asthma. Recently, we reported that interleukin-4 (IL-4) induced the expression of 15-LO-1 in human cord blood derived mast cells in vitro and that mast cells express 15-LO-1 in vivo (4). Therefore, it was of interest to investigate if mast cells could produce 14,15-leukotrienes. IL-4 primed mast cells were incubated with arachidonic acid (10 μM) for 5 min. Supernatants were collected and analyzed using an EIA against 14,15-LTC4. Under these conditions, human mast cells released 0.8+/−0.6 pmol/10^6 cells, (n=3), indicating the capacity to synthesise and release immunoreactive 14,15-LTC4 after arachidonic acid stimulation.
Prior to incubation, CBMC cells were primed for four days with IL-4 (10 ng/ml). After mechanical removal and washing in PBS, cells were resuspended in PBS and pre-incubated with or without indomethacin (1 μM) for 2 minutes in 37° C. The CBMC cells were subsequently incubated in 37° C. with arachidonic acid for indicated time periods. Incubations were terminated either by addition of one volume of methanol (LC-MS analysis) or by rapid cool off, 0° C., and subsequently analyzed by EIA.

eosinophils [2] = assay: Biosynthesis of 14,15-LTC4 and LTC4 in eosinophils (RP-HPLC); assay type: cell-based, human; conditions: arachidonic acid (10 μM), 5 min, 37° C.; one line per donor 1-11
Description: (§1) Human eosinophils contain abundant amounts of both 15-lipoxygenase and 5-lipoxygenase. […] The cells were incubated for five minutes at 37° C. and the amounts of 14,15-LTC4 and LTC4 were analyzed with RP-HPLC. […] Therefore, measurement of these metabolites is considered to reflect the total formation of 15-lipoxygenase derived cysteinyl-containing 14,15-leukotrienes and 5-lipoxygenase derived cysteinyl-containing leukotriens, respectively.
Isolated eosinophils (1-20×10^6/sample) were resuspended in phosphate buffered saline (1 ml/sample) and pre-incubated for 2 minutes in 37° C. (in presence or absence of indomethacin, 1 μM) prior to stimulation with ionophore A23187 (1 μM)/arachidonic acid (1 or 10 μM)/A23187 plus arachidonic acid/PGD2 (1 μM)/LTC4 (1 μM)/IL-5 (10 ng/ml)/14,15-LTC4 (10 μM) or 14,15-LTD4 (10 μM) for indicated time periods at 37° C. The incubations were terminated by addition of one volume of methanol (for analysis by RP-HPLC). For subsequent analysis by enzyme immunoassay (EIA), reactions were terminated by rapid cool off, 0° C., before centrifugation at 1200×g, 5 min. Supernatants were transferred to cryo tubes and stored in −70° C. until analyzed.
In order to get rid of cellular debris and proteins, centrifugation at 1200×g for 5 min. was performed. Supernatants were evaporated under reduced pressure and the residues resolved in methanol and transferred to a test tube. Samples were thereafter evaporated to dryness under a stream of nitrogen, and finally resuspended in 200 μl mobile phase (acetonitril:methanol:H20:acetic acid, 29:19:72:0.8, pH adjusted to 5.6 with NH3 for analysis of leukotrienes and 14,15-leukotrienes, and methanol:water:trifluoroacetic acid 70:30:0.007 for analysis of monohydroxy acids). The extracted samples were subjected to analysis in a reverse phase HPLC system as described. Briefly, samples were applied to a octadecyl reverse phase column (Chromabond ^18C, Macherey-Nagel, Duren, Germany) and elution rate was 1.2 ml/minute.

[3] = system: confluent bovine endothelium cells; assay: Endothelial cell barrier function (TEER), Example 6a; assay type: cell-based
Description: Bovine aorta endothelial cells (BAEC) and human umbilical vein endothelial cells (HUVEC) were isolated and cultured with calf serum or human serum. BAEC or HUVEC in the first to fifth passages were detached by brief (2 min) trypsin-EDTA treatment (0.25% trypsin/0.01% EDTA) and replated onto 3.0 μm pore size polycarbonate filters (Tissue Culture inserts, 10 mm; NUNC, Roskilde, Denmark) or, for the purpose of visual inspection, 0.2 μm pore size Anopore inorganic membrane (transparent when wet). In order to promote cellular differentiation and enhance attachment of EC, the filters were pretreated with 50 μl Biomatrix 1 (167 μg/ml) and air-dried. EC were seeded at a density of 2×10^5 cells per filter and incubated in culture medium at 37° C. in a humidified atmosphere of 5% CO2 in air. The EC were grown to confluent monolayers, as assessed by daily microscopic observation, in transparent 0.2 μm pore size filters and measurement of the electrical resistance across the monolayer. Under these experimental conditions maximal resistance is obtained at day 7 postseeding, at which day the EC monolayers were then used in the experiments.
Rapid changes in endothelial cell (EC) barrier function in response to various arachidonic acid metabolites were analysed through continuous registration of transendothelial electrical resistance (TEER) with electrodes on each side of EC monolayer^18. For measurement of TEER, the filter insert with ECs was transferred to a resistance measurement chamber (Endohm-12, World Precision Instruments, Sarasota, Fla., USA) modified so as to assure exact positioning of the electrodes in relation to each other and to the filter insert daring repeated measurements. The chamber (low compartment) and the filter insert (upper compartment) were filled with 2 ml and 400 μl culture medium, respectively. All measurements were made at 37° C. with the equipment placed in a cell culture incubator. Direct readings of the electrical resistance were given by an ohmmeter (Evom, World Precision Instruments, Sarasota, Fla., US) connected to the electrodes of the resistance chamber. The electrical resistance of individual EC monolayers was obtained by subtracting the resistance of the corresponding naked filter coated with Biomatrix as measured prior to seeding of the EC. Thus, TEER values represent the resistance of the EC monolayer solely and depend on the development of tight junctions between adjoining endothelial cells.

eosinophils [4] = assay: Metabolism in eosinophils after 5 min of incubation; conditions: 5 min of incubation, 37° C.
Description: as §1

[5] = system: guinea pig pulmonary parenchymal strip or ileum; conditions: cited from earlier work
[6] = Non-enzymatic metabolism during incubation at 37° C.; assay type: physicochemical; conditions: 60 min incubation at 37° C.
Description: In order to analyze if eosinophils can metabolize 14,15-LTC4 to 14,15-LTD4 and 14,15-LTE4, eosinophils were incubated with synthetic 14,15-LTC4 or 14 (R)-cysteinyl-glycyl-15(S)-hydroxy-5,8,10,12(Z,Z,E,E)-eicosatetraenoic acid (14,15-LTD4) for 60 min at 37° C. The metabolites formed were analyzed with product ion scan at 497.2 m/z for 14,15-LTD4 and 440.2 m/z for 14,15-LTE4. The retention time and mass spectrum of a product formed (Metabolite 2) from 14,15-LTC4 were identical to synthetic 14,15-LTD4 (FIG. 30B), and a product formed (Metabolite 3) after incubation with 14,15-LTD4 had identical retention time and mass spectrum as synthetic 14 (R)-cysteinyl-15(S)-hydroxy-5,8,10,12(Z,Z,E,E)-eicosatetraenoic (14,15-LTE4) (FIG. 30C). […] (data not shown). Basically, the product ion mass spectra of 14,15-leukotrienes and corresponding 5-lipoxygenase derived cysteinyl-leukotrienes are almost identical. However, 14,15-leukotrienes form a fragment at 205 m/z, whereas the corresponding fragment in 5-lipoxygenase derived cysteinyl-leukotrienes is at 189 m/z (FIG. 31). These collision induced dissociation products are probably formed by a cleavage next to the carbon where the cysteinyl group is positioned, which is at carbon 14 for 14,15-leukotrienes and carbon 6 for leukotrienes.

neutrophils = assay: Oxidative metabolism of neutrophils, lucigenin-enhanced chemiluminescence; assay type: cell-based, human
Description: Neutrophil and eosinophil granulocytes were purified from peripheral whole blood using a Percoll gradient and the magnetic cell separation system (MACS).
Granulocytes were primed for 30 minutes at 37° C. with either IL-5 (10.5 ng/mL) or GM-CSF (10.5 ng/mL) and subsequently stimulated with IL-5 (100 ng/mL), GM-CSF (100 ng/mL), LTB4 (10^−7M) or Eoxin (10^−8-10^−6M). Oxidative metabolism was measured by a lucigenin-enhanced chemiluminescence (CL) assay.

[7] = system: human endothelial cell (EC) monolayers; assay type: cell-based; conditions: no granulocytes present
Description: To explore the ability of 14,15-LTC4 and its metabolites 14,15-LTD4 and 14,15-LTE4 to induce alterations in vascular permeability, an established in vitro permeability assay based on assessment of changes in electrical resistance across human endothelial cell (EC) monolayers was used. Maximum stimulus-induced change in EC resistance in this model reaches down to approximately −70%.
Human umbilical vein endothelial cells (HUVEC) were isolated and cultured as previously described (24). The cells were seeded onto 3 μm pore size polycarbonate filters (Tissue Culture inserts, 10 mm; NUNC, Roskilde, Denmark) at a density of 2×10^5 cells and grown to confluent monolayers. The capacity of arachdonic acid metabolites to induce changes in barrier function of endothelial cell (EC) monolayers was analyzed through continuous registration of transendothelial electrical resistance (TEER) (24). For measurement of TEER, the filter insert with ECs was transferred to a resistance measurement chamber (Endohm-12, World Precision Instruments, Sarasota, Fla., USA) modified so as to assure exact positioning of the electrodes in relation to each other and to the filter insert during repeated measurements. […] The electrical resistance of individual EC monolayers was obtained by subtracting the resistance of the corresponding naked filter coated with Biomatrix as measured prior to seeding of the EC. […]

CCCCC/C=C\C/C=C\C/C=C\C/C=C\CCCC(=O)O [Arachidonic acid]
14,15-LTC4 released by mast cells [1]: 0.8+/−0.6 pmol/10^6 cells | 14,15-LTC4 (eosinophils [2]): 58 pmol/10^7 and 74 pmol/10^7 and 34 pmol/10^7 and 12 pmol/10^7 and 26 pmol/10^7 and 46 pmol/10^7 and 16 pmol/10^7 and 22 pmol/10^7 and 48 pmol/10^7 and 40 pmol/10^7 and 32 pmol/10^7 | LTC4 (eosinophils [2]): 34 pmol/10^7 and 12 pmol/10^7 and 20 pmol/10^7 and 0 pmol/10^7 (4×) and 6 pmol/10^7 and 10 pmol/10^7 and 38 pmol/10^7 and 22 pmol/10^7

CCCCC[C@H](O)[C@@H](/C=C/C=C/C=C\C/C=C\CCCC(=O)O)SC[C@H](NC(=O)CC[C@H](N)C(=O)O)C(=O)NCC(=O)O [EoxC4, 14 (R)-glutathionyl-15 (S)-hydroxy-5,8,10,12 (Z,Z,E,E)-eicosatetraenoic acid]
plasma leakage / change in TEER ([3]; 10^−7 and 10^−8 M): induce significant plasma leakage | potency relative to the most potent 5-lipoxygenase derived leukotrienes ([3]; FIG. 22): about five to ten times less potent | metabolism in eosinophils (eosinophils [4]): almost no metabolism | bronchoconstriction ([5]; Drazen et al. 1981): did not induce bronchoconstriction | contractile effects ([5]; guinea pig pulmonary parenchymal strip or ileum): appear not to have contractile effects | non-enzymatic metabolism [6]: no non-enzymatic metabolism | radical production by GM-CSF primed neutrophils (neutrophils; GM-CSF (10.5 ng/mL) primed, Eoxin 10^−8-10^−6M): induced the radical production by GM-CSF primed neutrophils in a dose-dependent manner | responders (neutrophils; GM-CSF primed neutrophils): 7-8 subjects of 13

CCCCC/C=C\C[C@@H](O)/C=C/C=C/C=C\[C@@H](O)CCCC(=O)O [LTB4, leukotriene B4]
effect on EC barrier function [7]: no effect | oxygen free radical production by non-primed neutrophils (neutrophils; non-primed blood neutrophils, GM-CSF 100 ng/mL, LTB4 10^−7M, Eoxin 10^−8-10^−6M): induced the oxygen free radical production

Reference: patent publication US20090247634A1, “Methods for identifying modulators of eoxin formation” (priority 2006, published 2009)
